# According to US10512656B2, “Compositions and methods for the treatment of lysosomal storage disorders and disorders characterized by lysosomal dysfunction” (Baylor College of Medicine, priority 2016, dated 2019):
# Key:
# Akt = Akt activity in mouse brain homogenates; assay type: in vivo
# Procedure: (§1) Brain tissue and cultured cells were collected and lysed in RIPA buffer (50 mM Tris-HCl, ph 7.4, 1% NP40, 0.5% Na-deoxycholate, 0.1% SDS, 150 mM NaCl, 2 mM EDTA and 50 mM NaF) including a cocktail of protease (Roche) and phosphatase (SIGMA) inhibitors. Protein concentrations were measured with the bicinchoninic acid protein assay kit (Pierce, Rockford, Ill.), using bovine serum albumin as standard. Lysates were separated via SDS-polyacrylamide gel electrophoresis (PAGE) and then transferred to nitrocellulose membranes. Blots were incubated in blocking buffer (5%, w/v, dried skimmed milk in Tris-buffered saline, pH 7.4 and 0.2% Tween 20, TBST) followed by overnight incubation with appropriate antibodies diluted in blocking buffer (5% dry milk). Western blot images were acquired by LAS 4000 (GE Healthcare) and quantified using ImageJ. Images have been cropped for presentation.
# (§2) Mice were injected intraperitoneally with MK2206 (120 mg/kg) for four times every other day. MK2206 was formulated in 30% captisol in water. Four Cln3^Δex7-8 mice were injected with MK2206 and four were injected with 30% captisol as vehicle control.
# Trehalose (Swanson) was dissolved in drinking water to a final concentration of 2% and changed twice a week. […]
# HeLa cells = assay: Autophagy in HeLa cells (LC3 puncta, LC3 lipidation, TEM); assay type: cell-based, human; settings: for number of autophagic vesicles: TEM
# Procedure: FIG. 24. […] (b) Immunoblot analysis of LC3 lipidation. […] (d) Expression analysis of lysosomal and autophagy genes in HeLa cells treated with MK2206. Gene expression was normalized relative to the housekeeping gene, GAPDH. The dashed line indicates relative gene expression in untreated cells. […] Scale bar, 10 μm (a), 50 nm (c) and 20 μm (f).
# Control (Coriell Institute, USA) and JNCL fibroblasts (Gaslini Institute, Italy) were grown in DMEM (1:1, HyClone) supplemented with 10% heat-inactivated fetal bovine serum (FBS, Atlanta Biologicals), 2 mM L-glutamine, 100 U/ml penicillin and […] streptomycin (Invitrogen). HeLa cells were incubated for 2 h with LY294002 ([…], Cell Signaling), Torin 1 (300 nM, Cayman Chemical) or for 24 h with trehalose (100 mM, Sigma), rapamycin (300 nM, Sigma), MK2206 (1 μM, Selleckchem), U0126 ([…], Tocris) and dialyzed serum (GE Healthcare Life Sciences) for 30 min.
# For immunofluorescence assay, cells were grown on coverslips in 24-well plates. After the treatment, cells were washed with PBS and fixed with methanol for 10 min. Cells were then blocked with blocking reagent (0.1% saponin, 10% bovine serum in PBS) for 1 h and incubated with appropriate primary antibody(s) (1:100) for 3 h at room temperature. After three washes with PBS, the cells were incubated with appropriate secondary antibodies (1:500) for 1 h at room temperature. Coverslips were then mounted with vectashield containing 4,6-diamidino-2-phenylindole (H-1200) for imaging via confocal microscopy.
# as §1
# TFEB [1] = assay: TFEB subcellular localization in mouse brain; assay type: in vivo
# Procedure: as §2
# Trehalose (Swanson) was dissolved in drinking water to a final concentration of 2% and changed twice a week. Trehalose-containing water was given to Cln3^Δex7-8 and WT mice by spontaneous oral administration starting at 21 days of age and continuing until the day the mice died naturally (life span assessment) or were sacrificed for other studies.
# ERK = ERK inhibition check; assay type: cell-based
# Procedure: as §1
# Cln3^Δex7-8 and WT mice = assay: Auditory brainstem response (ABR) measurements; assay type: in vivo, mouse; settings: 10-month-old mice, both genotypes, vs untreated age-matched controls
# Procedure: ABRs were measured as previously described^69. Briefly, 10-month-old mice (n=4-6 per genotype/treatment group) were anaesthetized using an intraperitoneal injection of ketamine (100 mg/kg) and xylazine (10 mg/kg) and then immobilized in a head holder. Normal body temperature was maintained throughout the procedure by placing the mice on a heating pad. Pure tone stimuli from 4 to 48 kHz were generated using Tucker-Davis Technologies System 3 digital signal processing hardware and software (Tucker-Davis Technologies, Alachua, Fla., USA), and the intensity of the tone stimuli was calibrated using a type 4,938 ¼″ pressure-field calibration microphone (Bruel and Kjar, Nrum, Denmark). Response signals were recorded with subcutaneous needle electrodes inserted at the vertex of the scalp, the postauricular region and the back leg (ground)^69. Auditory thresholds were determined by decreasing the sound intensity of each stimulus from 90 to 10 dB in 5 dB steps, until the lowest sound intensity with reproducible and recognizable waves in the response was reached. Mean hearing thresholds±s.d. (dB SPL) were plotted as a function of stimulus frequency (kHz). Statistical analysis consisted of one-way analyses of variance to reveal overall trends accompanied by two-tailed Student's t-tests at individual frequencies to evaluate frequency-specific effects. […]
# TFEB [2] = assay: TFEB nuclear translocation in HeLa cells with WT or constitutively active mTOR; assay type: cell-based, human; settings: cells transfected with WT mTOR or mTOR^E2419K, trehalose 100 mM 24 h
# Procedure: (b) Quantification of TFEB subcellular localization (C, cytoplasmic; N, nuclear) after 24 h of trehalose treatment (Tre) or in untreated cells (UT). Scale bars in a, b is 40 μm. (c) Immunoblot analyses show expression levels of substrates downstream of mTORC1. Wild-type (WT) and TSC2 null MEF cells were treated with trehalose (Tre; 100 mM) for 24 h or left untreated. As controls, cells were treated with Torin 1 (300 nM) or rapamycin (300 nM) for 2 h before extracting the lysates. Phospho- and total S6K1 (P-S6K1 and T-S6K1), phospho- and total S6 (P-S6 and T-S6) and phospho- and total 4E-BP1 (P-4E-BP1 and T-4E-BP1) were detected as readouts of mTORC1 activity. […] (f) HeLa cells co-transfected with TFEB-3×FLAG and mTOR or (g) TFEB-3×FLAG and constitutively active mTOR (CA-mTOR, […]) constructs were treated with trehalose (100 mM for 24 h) or left untreated before immunofluorescent labelling of TFEB (red) and mTOR (green) with FLAG and mTOR antibodies, respectively. Scale bar, 10 μm (d-g). Data represent means±s.e.m.
# For immunofluorescence assay, cells were grown on coverslips in 24-well plates. After the treatment, cells were washed with PBS and fixed with methanol for 10 min. Cells were then blocked with blocking reagent (0.1% saponin, 10% bovine serum in PBS) for 1 h and incubated with appropriate primary antibody(s) (1:100) for 3 h at room temperature. […]
# GSK3β = target: T1, GSK3β (Homo sapiens, UniProt P49841); assay: GSK3β immunoblot in HeLa cells; assay type: cell-based; settings: trehalose 24 h
# T1 construct: endogenous in cells; host or cells: HeLa
# Excerpt: FIG. 16. […] GAPDH was used as a loading control. […] Images have been cropped for presentation.
# T1 sequence (P49841 whole entry): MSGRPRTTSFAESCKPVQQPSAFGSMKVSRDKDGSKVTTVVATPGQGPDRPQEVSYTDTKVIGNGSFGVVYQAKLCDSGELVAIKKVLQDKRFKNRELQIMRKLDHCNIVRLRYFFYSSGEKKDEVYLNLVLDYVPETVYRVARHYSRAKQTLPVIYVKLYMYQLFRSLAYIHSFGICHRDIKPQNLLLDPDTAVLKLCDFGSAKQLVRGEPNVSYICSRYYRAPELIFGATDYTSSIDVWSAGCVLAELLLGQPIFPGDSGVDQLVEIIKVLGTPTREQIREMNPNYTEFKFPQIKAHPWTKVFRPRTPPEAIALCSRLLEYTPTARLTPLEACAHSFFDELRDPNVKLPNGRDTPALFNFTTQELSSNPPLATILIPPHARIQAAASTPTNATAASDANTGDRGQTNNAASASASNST
SMILES,"Akt activity in brain (Akt; Cln3^Δex7-8 mice, MK2206 120 mg/kg intraperitoneal, four times every other day)",number of LC3 puncta (HeLa cells),number of autophagic vesicles (HeLa cells),LC3-II protein levels (HeLa cells; immunoblot),"TFEB localization in brain (TFEB [1]; Cln3^Δex7-8 mice, MK2206 120 mg/kg intraperitoneal)",ERK inhibition (ERK),ABR thresholds (Cln3^Δex7-8 and WT mice),"Akt activity in brain (Akt; WT and Cln3^Δex7-8 mice, trehalose-treated (oral))",TFEB nuclear translocation (TFEB [2]),"TFEB localization in brain sections (TFEB [1]; WT and Cln3^Δex7-8 mice, oral trehalose)",GSK3β activity (GSK3β)
"Cl.NC1(c2ccc(-c3nc4ccn5c(=O)[nH]nc5c4cc3-c3ccccc3)cc2)CCC1 [MK2206, 8-[4-(1-aminocyclobutyl)phenyl]-9-phenyl-1,2,4-triazolo[3,4-f][1,6]naphthyridin-3(2H)-one]",inhibition of Akt activity,increased number of LC3 puncta,increased number of autophagic vesicles,increased LC3-II protein levels,TFEB nuclear translocation,–,–,–,–,–,–
"OC[C@H]1O[C@H](O[C@H]2O[C@H](CO)[C@@H](O)[C@H](O)[C@H]2O)[C@H](O)[C@@H](O)[C@@H]1O [trehalose, a-D-glucopyranosyl a-D-glucopyranoside]",–,increased number of puncta,increased number of autophagic vesicles,–,–,does not inhibit ERK,lower ABR thresholds,Akt inhibition was confirmed,induces nuclear translocation of TFEB,TFEB nuclear translocation,no detectable effect
